One compound from PMC5454392, “Selective BET bromodomain inhibition as an antifungal therapeutic strategy” (Nature Communications, 2017) can be followed below.

The term IC50 denotes the point on the concentration scale where inhibition reaches its midpoint. Broadly, the Kd is a measure of binding affinity in units of concentration. Read a low Kd as tighter binding.

Molecules are shown by their SMILES. Entries after “also recorded” stand apart in the source; their conditions may differ.

Assay [1] concerns the target T1, CaBdf1 BD1 (Candida albicans, UniProt Q5A4W8).
T1 construct: made in house; host or cells: E. coli BL21(DE3)
Nature of the assay: HTRF assay, inhibition of BD binding to H4ac4 peptide. Conditions: HTRF, H4ac4 peptide; read-out: IC50. Also on record: species or system C. albicans. (TR-FRET usually uses a lanthanide donor and a delayed reading to cut background.)

In assay [2] the test system is 32 representative human (BET and non-BET) BDs. Kind of assay: BROMOscan profiling (DiscoverX). Type of assay: binding. Conditions: 10 μM; 35% of control used as cutoff for significant inhibition. The procedure:
BROMOscan profiling was performed by DiscoverX (Fremont, CA, USA). […] Ligand-loading densities were optimized as described.

Assay [3] has as its target T2, CaBdf1 BD2 (Candida albicans, UniProt Q5A4W8). Kind of assay: Isothermal titration calorimetry (ITC). Set-up: His tag with TEV site (N, cleaved yes); made in house; host or cells: E. coli BL21(DE3). Type of assay: binding. As for the experimental part: (§1) Proteins used for crystallization and for ITC. […] Cells were resuspended in buffer A (50 mM Tris-HCl pH 7.5, 300 mM NaCl, 10% glycerol, 25 mM imidazole, 5 mM β-mercaptoethanol and protease inhibitors) and lysed by sonication. The cleared lysate was incubated with Ni-NTA resin (Qiagen) and washed with buffer A containing 0.5 M NaCl. Proteins were eluted with 250 mM imidazole, dialysed overnight in the presence of His-tagged TEV protease against buffer A containing no imidazole and incubated with Ni-NTA resin to remove His-tagged species. Proteins were further purified on a Superdex 75 10/300 (GE Healthcare) column in 50 mM Hepes pH 7.5, 150 mM NaCl, 0.5 mM dithiothreitol (DTT). Proteins were concentrated to >20 mg ml^−1 on a Centricon device (Millipore) and used for ITC, TSA and crystallization experiments. […] Expression and purification were performed as above, except that buffer A was replaced by buffer B (50 mM Hepes pH 7.5, 500 mM NaCl, 5% glycerol, 5 mM imidazole and protease inhibitors) and gel filtration was performed in 10 mM Hepes pH 7.5, 500 mM NaCl and 5% glycerol.
(§2) Calorimetric experiments were performed on a NanoITC calorimeter (TA Instruments) at 25 °C while stirring at 250 r.p.m. All proteins were buffer exchanged by gel filtration into 50 mM Hepes pH 7.5, 150 mM NaCl, 0.5 mM DTT, except for SMARCA2 and SMARCA4A BDs, which were exchanged into 10 mM Hepes pH 7.5, 500 mM NaCl and 5% glycerol. […] Titrations consisted of an initial injection of 1.5 μl followed by 19 identical injections of 2.5 μl made at time intervals of 5 min. ITC data were corrected for the heat of dilution of injectant into buffer and analysed with software provided by the manufacturer using a single binding site model. The first data point was excluded from the analysis. Thermodynamic parameters determined from the ITC data are summarized in Supplementary Table 1.
On the technique in general: Isothermal titration calorimetry measures the heat released or taken up as one component is titrated into another.
Target sequence in this assay (Q5A4W8 386-491): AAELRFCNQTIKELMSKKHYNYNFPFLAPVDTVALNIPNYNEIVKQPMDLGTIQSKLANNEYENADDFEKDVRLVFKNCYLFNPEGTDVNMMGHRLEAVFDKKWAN

The target of assay [4] is T2, CaBdf1 BD2. Kind of assay: HTRF assay, inhibition of BD binding to H4ac4 peptide. Also on record: made in house; host or cells: E. coli BL21(DE3).
Target sequence in this assay (Q5A4W8 361-501): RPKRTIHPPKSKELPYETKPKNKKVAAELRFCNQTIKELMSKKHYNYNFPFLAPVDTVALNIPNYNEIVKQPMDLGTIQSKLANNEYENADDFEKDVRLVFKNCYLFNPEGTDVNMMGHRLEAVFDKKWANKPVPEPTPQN
Assay [5] addresses T2, CaBdf1 BD2. Type of assay: binding. Also on record: made in house; host or cells: E. coli BL21(DE3). The conditions noted are these: CaBdf1 BD2 WT. The procedure: (§3) In short, arrays were blocked and incubated with 1 μM of purified CaBdf1 BD1 or BD2. Arrays were incubated with recombinant BDs for 2 h at 4 °C in binding buffer (Tris-HCl 50 mM pH 7.4, NP-40 0.1%, NaCl 150 mM, glycerol 10%). […] Assays were performed in duplicate.
Target sequence in this assay (Q5A4W8 361-501): as above

In assay [6] the target is T1, CaBdf1 BD1. Type of assay: binding. The conditions noted are these: CaBdf1 BD1 WT. The procedure:
as §3

Assay [7] addresses T3, human Brd4 BD2 (Homo sapiens, UniProt O60885).
T3 construct: GST-tagged human Brd4 BD2 (residues 349–460) was purchased from Reaction Biology Corp; purchased Reaction Biology Corp
Nature of the assay: HTRF assay, inhibition of BD binding to H4ac4 peptide.

Assay [8] has as its target T4, CaBdf1 BD1 Y248F (Candida albicans, UniProt Q5A4W8, Y248F).
T4 construct: made in house; host or cells: E. coli BL21(DE3), inferred from the wild-type GST construct
Nature of the assay: Histone peptide microarray binding, YF mutant. Also on record: species or system C. albicans. Conditions: CaBdf1 BD1 YF mutant. The procedure:
(§4) In short, arrays were blocked and incubated with 1 μM of purified CaBdf1 BD1 or BD2. Arrays were incubated with recombinant BDs for 2 h at 4 °C in binding buffer (Tris-HCl 50 mM pH 7.4, NP-40 0.1%, NaCl 150 mM, glycerol 10%). […] Assays were performed in duplicate. Images were acquired on a Bio-Rad ChemiDoc XRS Imaging machine and data were quantified using the array analyser software provided by Active Motif.

Assay [9] concerns the target T5, CaBdf1 BD2 Y425F (Candida albicans, UniProt Q5A4W8, Y425F).
T5 construct: made in house; host or cells: E. coli BL21(DE3), inferred from the wild-type GST construct
Nature of the assay: Histone peptide microarray binding, YF mutant. Also on record: species or system C. albicans. The conditions noted are these: CaBdf1 BD2 YF mutant. As for the experimental part:
as §4

Assay [10] relates to C. albicans. Nature of the assay: C. albicans growth assay in liquid media. Type of assay: cell-based. The conditions noted are these: liquid media, WT allele repressed. The procedure: Growth on liquid media. C. albicans strains were grown at 30 °C in SC medium to an OD600 of 0.5–0.8. For the evaluation of growth defects related to Bdf1 mutations, log-phase growing cells were counted using a Neubauer chamber and diluted in liquid media to a final concentration of 5,400 cells per ml per well in a sterile 96-well plate. Dox (50 μg ml^−1) or methionine (5 mM)/cysteine (0.25 mM) were added to the media if required. Plates were incubated at 30 °C and OD600 was measured using a Multiskan FC Microplate Photometer (Thermo Fisher). For the evaluation of chemical compounds, strains were grown in SC medium supplemented with 50 μg ml^−1 Dox or 5 mM methionine/0.25 mM cysteine 24 h before counting and then seeded in 96-well plates at the same concentration as mentioned above, with or without chemical compounds. Statistical tests were performed using two-sided Welch t-tests.

For assay [11], the target named is T6, SMARCA4 BD (Homo sapiens, UniProt P51532).
T6 construct: Human SMARCA2 and SMARCA4 BD plasmids bearing an N-terminal His tag and TEV protease site; His tag with TEV site (N, cleaved yes); 74664; host or cells: E. coli BL21(DE3)
Kind of assay: Isothermal titration calorimetry (ITC). Type of assay: binding. The procedure: as §1, §2

The target in assay [12] is T7, SMARCA2 BD (Homo sapiens, UniProt P51531).
T7 construct: Human SMARCA2 and SMARCA4 BD plasmids bearing an N-terminal His tag and TEV protease site; His tag with TEV site (N, cleaved yes); 73250; host or cells: E. coli BL21(DE3)
Nature of the assay: Isothermal titration calorimetry (ITC). It is filed as binding. The procedure:
as §1, §2

T1 sequence (Q5A4W8 193-327): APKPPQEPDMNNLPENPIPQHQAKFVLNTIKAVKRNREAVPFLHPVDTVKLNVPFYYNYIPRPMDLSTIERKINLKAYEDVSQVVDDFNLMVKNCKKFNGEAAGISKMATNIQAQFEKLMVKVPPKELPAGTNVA
T6 sequence (P51532 1453-1564 limits assumed): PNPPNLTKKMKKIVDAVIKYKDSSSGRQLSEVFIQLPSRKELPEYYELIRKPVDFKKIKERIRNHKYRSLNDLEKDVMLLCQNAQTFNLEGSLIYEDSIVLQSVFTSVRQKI
T7 sequence (P51531 1378-1506 limits assumed): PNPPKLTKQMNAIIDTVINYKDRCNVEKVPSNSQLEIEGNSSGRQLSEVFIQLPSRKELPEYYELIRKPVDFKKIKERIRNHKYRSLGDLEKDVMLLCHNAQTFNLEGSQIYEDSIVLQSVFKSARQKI
T4 sequence (Q5A4W8 193-327 Y248F): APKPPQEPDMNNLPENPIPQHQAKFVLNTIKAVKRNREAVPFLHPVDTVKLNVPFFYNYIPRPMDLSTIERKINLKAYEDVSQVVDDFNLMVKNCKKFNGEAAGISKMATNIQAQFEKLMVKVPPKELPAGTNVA
T5 sequence (Q5A4W8 361-501 Y425F): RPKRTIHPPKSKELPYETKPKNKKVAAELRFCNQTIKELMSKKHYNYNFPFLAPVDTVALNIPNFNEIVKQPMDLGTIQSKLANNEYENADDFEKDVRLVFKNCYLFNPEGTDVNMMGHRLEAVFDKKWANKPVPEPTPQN

For `Cc1ccc(Nc2c(-c3ccc(O)cc3)nc3c(C)cccn23)cc1` [Compound 2], the IC50 is at least 40000 nM in assay [1], 1100 nM in assay [4] and at least 40000 nM in assay [7]. The “activity against human BDs in BROMOscan (in words)” value in [2] was “no significant inhibition was detected; also recorded: do not significantly inhibit”. Also, the equilibrium dissociation constant (Kd) in assay [3] was determined as 2100 nM. Moreover, the “N (stoichiometry)” value in assay [3] (ITC, 25 °C) turned out to be 1.21 ± 0.11. Besides, in assay [3] (ITC, 25 °C), the TΔS worked out at 2.01 kcal/mol. In addition, in assay [3] (ITC, 25 °C), the ΔG is -7.741 kcal/mol. In assay [3] (ITC, 25 °C), this compound showed a ΔH of -5.74 ± 0.96 kcal/mol. In addition, the results for the “Peptide array signal, Normalized (0 to 100%), Average” value in assay [5] and in assay [6] were 0.37% and 0.0725%, respectively. Further, the “Peptide array signal, raw data, Left” value in [5] (left replicate array) stood at 0.005491; in assay [6] (left replicate array), 0.0005345; in assay [8] (left replicate array), 0.003429; in assay [9] (left replicate array), 0.0004854. The “Peptide array signal, raw data, Rigt” value in [5] (right replicate array) was found to be 0.01304; in assay [6] (right replicate array) it was 0.004276. Moreover, the “Peptide array signal, raw data, Right” value stood at 0.002743 in assay [8] (right replicate array) and 0.002427 in [9] (right replicate array). In addition, the “antifungal activity against mutant strains in which either BD1 or BD2 was inactivated (in words)” value in assay [10] is “little antifungal activity”. For the same compound, the “binding to SMARCA4 BD (in words)” value in [11] is listed as “no detectable binding; also recorded: no significant inhibition”. In assay [12], the “binding to SMARCA2 BD (in words)” value is given as “no detectable binding; also recorded: no significant inhibition”.
